The record followed here is patent US12479847B2 (DANA-FARBER CANCER INSTITUTE, INC., priority 2019, dated 2025).

For one assay, the target named is human LRRK2 kinase (Homo sapiens, UniProt Q5S007). The settings on record: LRRK2, ADP-Glo, ATP 10 μM, 60 minutes at 25° C.
In the next assay the target is T1, wild-type LRKK2 (Mus musculus, UniProt Q5S006).
T1 construct: endogenous in cells; host or cells: NIH-3T3
Description: LRRK2 immunoblot, phosphorylation of Ser935, NIH-3T3 cell lysates. Format: cell-based. The settings on record: FIG. 1. The protocol: Cell lysates were extracted from the NIH-3T3 cell pellet using lysis buffer (40 mM Tris-HCl pH 8.0, 120 mM NaCl, 0.10% Nonidet™-P40) supplemented with protease inhibitors. Proteins in whole-cell lysates were separated by SDS-PAGE and transferred to an Amersham™ nitrocellulose membrane (Amersham, UK). Nitrocellulose membranes were blocked with 5% skim milk in phosphate-buffered saline containing Tween 20 and incubated with primary antibodies overnight at 4° C. The blots were then incubated with the appropriate horseradish peroxidase (HRP)-conjugated secondary antibodies and proteins were visualized by enhanced chemiluminescence, according to the manufacturer's protocol (Amersham™ Western blotting). Secondary antibodies, anti-rabbit IgG-HRP were purchased from Cell Signaling technology. Immunoblot film were scanned on a LAS500 scanner, and images were managed with Adobe Photoshop

SMILES strings stand for the structures.

Sequence of human LRRK2 kinase (Q5S007 whole entry): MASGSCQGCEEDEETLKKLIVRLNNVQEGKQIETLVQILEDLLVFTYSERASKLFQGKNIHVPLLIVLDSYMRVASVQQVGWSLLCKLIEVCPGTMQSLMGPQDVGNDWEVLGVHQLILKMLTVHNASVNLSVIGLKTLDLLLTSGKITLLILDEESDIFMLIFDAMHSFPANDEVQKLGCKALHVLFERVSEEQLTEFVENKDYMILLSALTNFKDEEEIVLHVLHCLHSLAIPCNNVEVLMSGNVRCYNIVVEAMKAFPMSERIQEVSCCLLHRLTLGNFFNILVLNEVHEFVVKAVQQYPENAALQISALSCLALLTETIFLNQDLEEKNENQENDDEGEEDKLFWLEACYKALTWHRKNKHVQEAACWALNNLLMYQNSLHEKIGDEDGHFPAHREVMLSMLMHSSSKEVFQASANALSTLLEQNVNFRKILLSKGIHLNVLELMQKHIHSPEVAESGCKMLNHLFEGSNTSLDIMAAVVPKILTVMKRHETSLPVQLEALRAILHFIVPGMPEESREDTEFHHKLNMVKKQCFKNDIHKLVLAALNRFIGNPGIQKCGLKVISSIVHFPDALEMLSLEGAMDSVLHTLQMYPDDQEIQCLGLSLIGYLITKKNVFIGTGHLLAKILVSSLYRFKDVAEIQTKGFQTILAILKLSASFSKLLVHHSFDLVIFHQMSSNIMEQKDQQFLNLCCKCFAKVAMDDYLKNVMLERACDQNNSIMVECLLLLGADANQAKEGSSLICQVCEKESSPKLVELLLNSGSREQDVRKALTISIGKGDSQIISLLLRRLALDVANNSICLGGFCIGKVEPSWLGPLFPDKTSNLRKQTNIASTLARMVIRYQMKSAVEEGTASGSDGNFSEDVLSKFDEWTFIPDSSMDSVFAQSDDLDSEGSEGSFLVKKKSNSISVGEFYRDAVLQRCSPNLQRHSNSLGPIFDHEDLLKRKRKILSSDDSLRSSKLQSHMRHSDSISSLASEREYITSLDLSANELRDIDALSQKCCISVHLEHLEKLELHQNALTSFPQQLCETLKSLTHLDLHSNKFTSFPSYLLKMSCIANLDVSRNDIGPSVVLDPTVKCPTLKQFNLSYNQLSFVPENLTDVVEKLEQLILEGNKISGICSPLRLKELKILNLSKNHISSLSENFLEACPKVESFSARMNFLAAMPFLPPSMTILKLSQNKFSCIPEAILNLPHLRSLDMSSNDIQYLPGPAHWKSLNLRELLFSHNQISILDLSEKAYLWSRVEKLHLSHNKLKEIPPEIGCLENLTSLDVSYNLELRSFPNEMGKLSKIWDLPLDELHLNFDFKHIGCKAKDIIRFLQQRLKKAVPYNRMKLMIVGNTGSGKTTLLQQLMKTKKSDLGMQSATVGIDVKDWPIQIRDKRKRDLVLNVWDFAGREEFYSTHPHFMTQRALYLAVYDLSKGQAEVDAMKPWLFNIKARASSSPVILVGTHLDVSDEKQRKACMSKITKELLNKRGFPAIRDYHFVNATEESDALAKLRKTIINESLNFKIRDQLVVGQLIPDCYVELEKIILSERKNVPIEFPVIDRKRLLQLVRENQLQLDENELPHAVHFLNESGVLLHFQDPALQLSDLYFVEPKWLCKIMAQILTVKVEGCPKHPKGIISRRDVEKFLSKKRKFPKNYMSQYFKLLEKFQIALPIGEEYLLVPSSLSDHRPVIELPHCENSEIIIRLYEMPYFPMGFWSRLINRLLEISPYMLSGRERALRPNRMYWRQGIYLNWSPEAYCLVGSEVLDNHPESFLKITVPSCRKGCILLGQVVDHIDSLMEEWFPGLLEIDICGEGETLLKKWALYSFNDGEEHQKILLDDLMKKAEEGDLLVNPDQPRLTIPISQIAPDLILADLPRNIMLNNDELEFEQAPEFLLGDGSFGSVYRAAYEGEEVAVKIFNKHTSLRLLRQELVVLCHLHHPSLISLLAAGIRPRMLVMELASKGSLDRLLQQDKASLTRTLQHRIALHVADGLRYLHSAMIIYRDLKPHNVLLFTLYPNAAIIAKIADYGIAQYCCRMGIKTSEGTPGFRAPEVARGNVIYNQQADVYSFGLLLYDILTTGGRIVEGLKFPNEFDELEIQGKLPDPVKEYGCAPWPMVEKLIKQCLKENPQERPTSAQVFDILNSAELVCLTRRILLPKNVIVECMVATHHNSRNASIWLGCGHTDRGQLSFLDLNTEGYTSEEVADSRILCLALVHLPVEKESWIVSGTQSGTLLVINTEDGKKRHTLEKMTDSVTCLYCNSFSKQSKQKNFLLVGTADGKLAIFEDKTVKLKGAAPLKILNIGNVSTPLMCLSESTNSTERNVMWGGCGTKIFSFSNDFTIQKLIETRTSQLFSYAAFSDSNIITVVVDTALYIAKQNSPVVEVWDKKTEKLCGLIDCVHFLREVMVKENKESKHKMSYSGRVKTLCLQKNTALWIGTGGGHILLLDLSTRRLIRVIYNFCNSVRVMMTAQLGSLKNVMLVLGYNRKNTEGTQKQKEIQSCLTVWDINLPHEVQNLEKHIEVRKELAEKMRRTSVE
T1 sequence (Q5S006 whole entry): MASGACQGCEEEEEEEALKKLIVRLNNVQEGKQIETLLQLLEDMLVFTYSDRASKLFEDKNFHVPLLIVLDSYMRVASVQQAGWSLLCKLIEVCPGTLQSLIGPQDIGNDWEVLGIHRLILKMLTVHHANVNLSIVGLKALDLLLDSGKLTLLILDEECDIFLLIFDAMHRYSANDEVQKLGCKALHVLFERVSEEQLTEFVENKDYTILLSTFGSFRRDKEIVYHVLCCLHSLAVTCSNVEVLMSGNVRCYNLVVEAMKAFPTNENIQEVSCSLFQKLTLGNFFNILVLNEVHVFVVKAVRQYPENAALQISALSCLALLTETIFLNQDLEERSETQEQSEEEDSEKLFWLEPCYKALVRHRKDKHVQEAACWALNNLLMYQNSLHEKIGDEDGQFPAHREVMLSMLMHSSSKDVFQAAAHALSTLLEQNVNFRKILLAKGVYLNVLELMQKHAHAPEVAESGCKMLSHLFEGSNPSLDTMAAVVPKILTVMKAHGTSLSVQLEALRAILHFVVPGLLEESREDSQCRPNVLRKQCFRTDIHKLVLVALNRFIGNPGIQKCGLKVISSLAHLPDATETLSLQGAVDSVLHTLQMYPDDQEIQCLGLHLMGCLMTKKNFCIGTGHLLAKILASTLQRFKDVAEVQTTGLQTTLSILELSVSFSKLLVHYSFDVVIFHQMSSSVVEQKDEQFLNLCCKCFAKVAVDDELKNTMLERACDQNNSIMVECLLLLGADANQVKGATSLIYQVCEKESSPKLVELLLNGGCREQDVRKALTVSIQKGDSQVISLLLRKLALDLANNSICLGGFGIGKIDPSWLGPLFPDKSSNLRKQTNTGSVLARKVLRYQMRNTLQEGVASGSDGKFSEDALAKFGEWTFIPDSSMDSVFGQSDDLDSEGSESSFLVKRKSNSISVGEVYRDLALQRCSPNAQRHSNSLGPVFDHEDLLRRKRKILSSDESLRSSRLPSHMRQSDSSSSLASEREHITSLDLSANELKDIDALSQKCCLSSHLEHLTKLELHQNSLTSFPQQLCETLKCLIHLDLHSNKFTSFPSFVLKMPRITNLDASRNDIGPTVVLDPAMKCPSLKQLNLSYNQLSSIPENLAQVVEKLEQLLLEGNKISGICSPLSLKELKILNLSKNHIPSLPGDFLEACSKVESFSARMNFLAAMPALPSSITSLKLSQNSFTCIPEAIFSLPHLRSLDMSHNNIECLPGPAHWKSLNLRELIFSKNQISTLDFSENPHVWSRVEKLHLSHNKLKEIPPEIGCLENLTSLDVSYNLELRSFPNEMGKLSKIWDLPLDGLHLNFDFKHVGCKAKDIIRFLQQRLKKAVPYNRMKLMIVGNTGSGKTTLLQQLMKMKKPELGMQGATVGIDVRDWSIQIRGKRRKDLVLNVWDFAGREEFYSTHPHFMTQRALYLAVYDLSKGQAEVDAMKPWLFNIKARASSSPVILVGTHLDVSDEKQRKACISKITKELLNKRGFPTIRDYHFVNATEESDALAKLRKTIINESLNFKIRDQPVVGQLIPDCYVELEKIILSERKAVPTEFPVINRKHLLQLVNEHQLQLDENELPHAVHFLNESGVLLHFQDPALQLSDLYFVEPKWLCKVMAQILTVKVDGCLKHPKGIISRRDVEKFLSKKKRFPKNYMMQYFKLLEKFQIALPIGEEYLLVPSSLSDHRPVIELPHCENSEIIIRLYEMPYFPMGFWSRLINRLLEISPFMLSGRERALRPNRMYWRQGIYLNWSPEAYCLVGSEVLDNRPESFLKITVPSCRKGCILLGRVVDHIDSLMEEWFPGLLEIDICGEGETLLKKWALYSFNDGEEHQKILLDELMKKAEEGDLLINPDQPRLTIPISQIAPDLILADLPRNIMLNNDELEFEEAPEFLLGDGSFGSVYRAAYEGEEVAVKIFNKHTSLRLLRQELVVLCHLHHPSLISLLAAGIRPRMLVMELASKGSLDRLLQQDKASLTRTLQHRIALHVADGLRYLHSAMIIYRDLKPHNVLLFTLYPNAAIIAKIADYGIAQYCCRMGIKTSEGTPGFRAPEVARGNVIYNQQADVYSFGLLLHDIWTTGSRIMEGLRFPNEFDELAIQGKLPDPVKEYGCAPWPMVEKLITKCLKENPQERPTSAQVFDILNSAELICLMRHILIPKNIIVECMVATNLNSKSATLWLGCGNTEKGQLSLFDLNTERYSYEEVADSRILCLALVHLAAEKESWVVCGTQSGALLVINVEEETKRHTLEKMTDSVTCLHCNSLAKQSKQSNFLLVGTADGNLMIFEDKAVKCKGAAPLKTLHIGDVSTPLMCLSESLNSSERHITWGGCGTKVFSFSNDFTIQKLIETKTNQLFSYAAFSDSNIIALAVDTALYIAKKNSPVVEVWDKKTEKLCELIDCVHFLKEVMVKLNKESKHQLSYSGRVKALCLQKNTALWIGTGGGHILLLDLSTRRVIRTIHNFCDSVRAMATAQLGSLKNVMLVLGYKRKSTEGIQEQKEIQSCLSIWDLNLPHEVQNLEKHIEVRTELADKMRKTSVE
Description for human LRRK2 kinase: Assay kits from Promega™ Corporation were used according to instructions and adapted as outlined herein. […] The kinase reaction was performed with kinase reaction buffer (40 mM Tris base pH 7.4, 20 mM MgCl2, 0.5 mM dithiothreitol), 0.1 mg/ml bovine serum albumin, distilled H2O). […] In brief, the kinase reactions were started by addition of ATP to the kinase reaction mixture. The resulting mixture was incubated for 60 minutes at 25° C., and then stopped by adding 5 μl of ADP-Glo™ reagent. After incubation at room temperature in the dark for 40 minutes, 10 μl of kinase detection reagent was added per well, and the mixture was incubated for 10 minutes. […] Positive and negative controls were performed in 0.5% DMSO in the presence and absence of LRRK2 kinases. Curve fitting and data presentations were performed using GraphPad Prism version 5.0 (GraphPad Software, Inc.).

Consider `CCCNc1nc(Nc2ccc(C(=O)N3CCC(N4CCOCC4)CC3)c3c2OCCO3)nc2[nH]cc(Cl)c12` [Compound 2, (8-((5-chloro-4-(propylamino)-7H-pyrrolo[2,3-d]pyrimidin-2-yl)amino)-2,3-dihydrobenzo[b][1,4]dioxin-5-yl)(4-morpholinopiperidin-1-yl)methanone], for which the IC50 on human LRRK2 kinase is below 10 nM. In addition, on wild-type LRKK2, the “inhibition of the phosphorylation of Ser935 in wild-type LRKK2” value (from here on “inhibition”) is on record as “inhibited the phosphorylation of Ser935 in wild-type LRKK2 with potency similar to known LRRK2 inhibitor LRRK2-IN-1”.

The molecule `CCCNc1nc(Nc2ccc(S(=O)(=O)N3CCC(N4CCOCC4)CC3)cc2OC)nc2[nH]cc(Cl)c12` [Compound 19, 5-chloro-N2-(2-methoxy-4-((4-morpholinopiperidin-1-yl)sulfonyl)phenyl)-N4-propyl-7H-pyrrolo[2,3-d]pyrimidine-2,4-diamine] registered a 50% inhibitory concentration (IC50) on human LRRK2 kinase of 100 to 1000 nM. Further, the “inhibition” value on wild-type LRKK2 is listed as “inhibited the phosphorylation of Ser935 in wild-type LRKK2 with potency similar to known LRRK2 inhibitor LRRK2-IN-1”. Consider `COc1cc(C(=O)N2CCC(N3CCN(C)CC3)CC2)ccc1Nc1ncc2c(n1)N(C)c1ccccc1C(=O)N2C` [LRRK2-IN-1, reference compound], for which the “inhibition” value against wild-type LRKK2 was “inhibition of the phosphorylation of Ser935”.

On human LRRK2 kinase, `COc1cc(S(=O)(=O)N2CCOCC2)ccc1Nc1nc(NCC(C)C)c2c(Cl)c[nH]c2n1` [Compound 31, 5-chloro-N4-isobutyl-N2-(2-methoxy-4-(morpholinosulfonyl)phenyl)-7H-pyrrolo[2,3-d]pyrimidine-2,4-diamine] registered a half-maximal inhibitory concentration (IC50) of 100 to 1000 nM.

With `COc1cc(S(=O)(=O)N2CCOCC2)ccc1Nc1nc(NC2CCCCC2)c2c(Cl)c[nH]c2n1` [Compound 58, 5-chloro-N4-cyclohexyl-N2-(2-methoxy-4-(morpholinosulfonyl)phenyl)-7H-pyrrolo[2,3-d]pyrimidine-2,4-diamine], the 50% inhibitory concentration (IC50) on human LRRK2 kinase fell in the range of 100 to 1000 nM. Take `COc1cc(S(C)(=O)=O)ccc1Nc1nc(NC2CC2)c2c(Cl)c[nH]c2n1` [Compound 26, 5-chloro-N4-cyclopropyl-N2-(2-methoxy-4-(methylsulfonyl)phenyl)-7H-pyrrolo[2,3-d]pyrimidine-2,4-diamine]: the IC50 against human LRRK2 kinase was below 10 nM.

Regarding `CCNc1nc(Nc2ccc(C(=O)N3CCOCC3)c3c2OCCO3)nc2[nH]cc(Cl)c12` [Compound 17, (8-((5-chloro-4-(ethylamino)-7H-pyrrolo[2,3-d]pyrimidin-2-yl)amino)-2,3-dihydrobenzo[b][1,4]dioxin-5-yl)(morpholino)methanone], on human LRRK2 kinase, the half-inhibitory concentration (IC50) is below 10 nM.
